{
  "source": "patent US20100063155A1",
  "about": "“N-(3-PHENYLPROPYL)BENZAMIDE DERIVATIVES” (priority 2007, published 2010)",
  "test_system": "Alternaria brassicae",
  "assay": "In vivo test on Alternaria brassicae (leaf spot of crucifers)",
  "details": "500 ppm, preventive spray on radish plants (Pernot variety), contaminated after 24 hours, grading 6 to 7 days after contamination vs control plants",
  "procedure": "The active ingredients tested are prepared by potter homogenisation in a mixture of acetone/tween/water. This suspension is then diluted with water to obtain the desired active material concentration.\nRadish plants (Pernot variety), sown on a 50/50 peat soil-pozzolana substrate in starter cups and grown at 18-20° C., are treated at the cotyledon stage by spraying with the active ingredient prepared as described above.\nPlants, used as controls, are treated with the mixture of acetone/tween/water not containing the active material.\nAfter 24 hours, the plants are contaminated by spraying them with an aqueous suspension of Alternaria brassicae spores (40,000 spores per cm^3). The spores are collected from a 12 to 13 days-old culture.\nThe contaminated radish plants are incubated for 6-7 days at about 18° C., under a humid atmosphere.\nGrading is carried out 6 to 7 days after the contamination, in comparison with the control plants.",
  "data": [
    {"smiles": "O=C(NCCCc1ccc(Cl)cc1Cl)c1ccccc1C(F)(F)F", "note": "[Compound 1, N-[3-(2,4-dichlorophenyl)propyl]-2-(trifluoromethyl)benzamide]", "values": [
      {"measurement": "protection", "result": "at least 70%"}
    ]}
  ]
}
